Each structure is given as a SMILES string. Converted amounts (≈) assume the structure as drawn.

This assay deals with M. tuberculosis strain expressing LepB under the hsp60 promotor (LepB-OE). Nature of the assay: microbe, parasite or virus in culture. As to conditions: Mycobacterium tuberculosis, average ± SD of at least two experiments. The class given is cell-based.
Take `C/C(=N\NC(=O)C1CC1)c1ccccn1` [Compound 40]: the MIC was found to be 27 ± 2 µM (≈ 5.49 µg/mL).
For the compound `C/C(=N\NC(=O)c1ccc(N2CCCC2=O)cc1)c1ccccn1` [Compound 11], the MIC came out at 5.6 ± 0.6 µM (≈ 1.81 µg/mL).
As for `C/C(=N\NC(=O)C1CCCN(S(=O)(=O)c2ccccc2)C1)c1ccccn1` (centres unmarked) [Compound 38], the figure is 9.2 ± 4 µM (≈ 3.56 µg/mL).
As for `Cc1cc(C)nc(NN=C(c2ccccc2)c2ccccc2)n1` [Compound 27], the figure is 103 ± 38 µM (≈ 31.1 µg/mL); as for `C/C(=N\Nc1nc(C)cc(C)n1)c1ccccn1` [Compound 1], 18 ± 8 µM (≈ 4.34 µg/mL); as for `C/C(=N\NC(=N)c1ccccn1)c1ccccn1` [Compound 30], greater than 200 µM.
`C/C(=N\NC(=O)c1ccoc1C)c1ccccn1` [Compound 39] registered an MIC of 6.5 ± 2.2 µM (≈ 1.58 µg/mL).
In the case of `Oc1ccccc1/C=N/Nc1nc(-c2ccccc2)cs1` [Compound 2] it was 160 ± 57 µM (≈ 47.3 µg/mL).

(Values after PMC5215716, “A Target-Based Whole Cell Screen Approach To Identify Potential Inhibitors of Mycobacterium tuberculosis Signal Peptidase” (ACS Infectious Diseases, 2016).)
